Where two headings read alike, the source gives them in different places.
Legend:
Assay type in all cases: in vivo
Ctenocephalides felis [1] = assay: Rapidity of action of topical compositions against flea infestation in cats (Example 1)
Method: In this example, a comparative study of the efficacy of nitenpyram (rapidity of action) administered topically, alone or in combination with fipronil, compared with fipronil administered alone, against cat fleas, was carried out.
It is a randomized, blind, controlled efficacy study carried out in parallel on 4 groups of six cats, according to the recommendations of the guidelines of the Committee for Veterinary Medicinal Products (CVMP): “Guidelines for the testing and evaluation of the efficacy of antiparasitic substances for the treatment and prevention of tick and flea infestations in dogs and cats”, EMEA/CVMP/005/00-FINAL-Rev.1.
The cats used in this study were male or female, adult domestic cats more than 6 months old, of mixed breeds, but mainly of short-hair European breed, weighing between 2 and 5 kg. […]
6 days before the beginning of the study (D=−6), all the cats were infested with approximately 100 laboratory fleas, strain Ctenocephalides felis, of male or female gender. The fleas were then counted on the day before the treatment (D=−1) and then at different times after application of the treatment (1, 4, 12 and 24 hours after treatment).
To do this, all the fleas present on an animal are harvested by combing the cat and then counting after combing. The number of live fleas is thus determined. […]

[2] = Comparative pharmacokinetics of nitenpyram administered orally and topically to cats (Example 4); details: for Tmax: read-out: Tmax: time at which the maximum concentration of nitenpyram in the plasma is observed; for AUC: read-out: AUCtot: area under the curve of the nitenpyram concentration over time determined between t0 and the final measurement; for half-life: read-out: Thalf: half-life time (converted); for Cmax: read-out: Cmax: maximum amount of nitenpyram in the plasma
Method: In this example, a comparative study of the pharmacokinetics of nitenpyram administered topically and orally to cats was carried out.
The cats used in this study were prepared under the same conditions as those described in example 1.
It was verified, beforehand, that no trace of nitenpyram was detected in the plasma of the cats.
Ten young adult cats weighing between 2 and 6 kg are divided up into two groups: • a first group of 5 cats (female) received a single topical administration on the back between the shoulder blades at the beginning of the study; the topical composition is a solution containing 10% of nitenpyram (100 mg of nitenpyram per ml) and the amount administered is 0.5 ml per cat. • a second group (4 females and one male) received a single oral administration of the commercial product Capstar® given at the beginning of the study. The Capstar® product is a tablet comprising 11.4 mg of nitenpyram.
Blood samples were taken regularly, and centrifuged at 3000 rpm for 10 minutes at 4° C., the pellet is removed and the plasma is recovered for analysis.
The plasma concentration of nitenpyram is determined by the UPLC-MS/MS (Ultra-Performance Liquid Chromatography coupled to tandem mass spectrometry) method on an Acquity BEH C18 column and a Waters Quattro Premier XE mass […].

Ctenocephalides felis [3] = assay: Supplementary study of efficacy over time after weekly flea re-infestation of cats (Example 3)
Method: In this example, a comparative study of the efficacy, over time, of nitenpyram administered topically, alone or in combination with fipronil, compared with fipronil administered alone, against cat fleas, was carried out. It is the continuation of the study of example 1 using compositions A, B and C.
At a regular interval after the first administration (D=0), all the cats were infested with approximately 100 laboratory fleas, strain Ctenocephalides felis, of male or female gender. The re-infestations were thus carried out at D=7, D=14, D=21, D=28, D=35, D=42, D=49, D=56 and D=63. The fleas were then counted various times after application of the treatment (at 2, 4 and 12 hours after re-infestation at D=7, D=14, D=21 and D=28; at 4, 8 and 12 hours after re-infestation at D=35 and D=42; at 12, 24 and 48 hours after re-infestation at D=49; at 24 and 48 hours after re-infestation at D=56 and, finally, at 48 hours after re-infestation at D=63).
To do this, all the fleas present on an animal were harvested by combing the cat, and then counted after combing. The number of live fleas is thus determined. After each count, the live fleas are put back on the cat. […]

[4] = both sexes, in vivo, oral administration, Capstar tablet 11.4 mg nitenpyram
[5] = female, plasma, topical or ocular, 50 mg per cat, topical administration, 10% solution 0.5 ml per cat

CCN(Cc1ccc(Cl)nc1)/C(=C/[N+](=O)[O-])NC [nitenpyram, (E)-N-(6-chloro-3-pyridylmethyl)-N-ethyl-N′-methyl-2-nitrovinylidenediamine]
effect of topical administration on cat fleas (Ctenocephalides felis [1]): lethal effect on the cat fleas | Tmax ([2]; both sexes, cat, in vivo, oral administration, Capstar tablet 11.4 mg nitenpyram): 1.3 h | AUC [2, 4]: 76800 ng·h/mL | half-life [2, 4]: 9.8 h | Cmax ([2]; both sexes, in vivo, po, 11.4 mg, oral administration, Capstar tablet 11.4 mg nitenpyram): > 5800 ng/mL | AUC ([2]; female, in vivo, topical or ocular, 50 mg per cat, topical administration, 10% solution 0.5 ml per cat): 86400 ng·h/mL | Cmax [2, 5]: 1290 ng/mL | half-life [2, 5]: 69.1 h | Tmax [2, 5]: 15 h | tolerance of oral administration ([2]; oral, Capstar tablet): well tolerated | half-life time administered topically relative to orally ([2]; topical vs oral): more than 7 times | tolerance of topical administration ([2]; topical, 10% solution 0.5 ml per cat): well tolerated locally | effect of topical administration on cat fleas (Ctenocephalides felis [3]): rapid and sustained lethal effect on cat fleas
